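All cell lines were grown in 96-well plates and treated with compound for 48 hours. TGI denotes the concentration required for complete inhibition of growth.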
Key:
Experiment in all cases: NCI-60 cell line screen, 48 h
A549 NSCLC = tested on: A549 NSCLC
ACHN renal = tested on: ACHN renal
HCC-2998 colon = tested on: HCC-2998 colon
HCT-15 colon = tested on: HCT-15 colon
HL-60(TB) leukemia = tested on: HL-60(TB) leukemia
IGROV1 ovarian = tested on: IGROV1 ovarian
LOX IMVI melanoma = tested on: LOX IMVI melanoma
MALME-3M melanoma = tested on: MALME-3M melanoma
MDA-MB-435 = tested on: MDA-MB-435
OVCAR-5 ovarian = tested on: OVCAR-5 ovarian
T-47D breast = tested on: T-47D breast
U251 CNS = tested on: U251 CNS
UACC-257 melanoma = tested on: UACC-257 melanoma
UACC-62 melanoma = tested on: UACC-62 melanoma

Row | SMILES | TGI (A549 NSCLC) [µM] | TGI (ACHN renal) [µM] | TGI (HCC-2998 colon) [µM] | TGI (HCT-15 colon) [µM] | TGI (HL-60(TB) leukemia) [µM] | TGI (IGROV1 ovarian) [µM] | TGI (LOX IMVI melanoma) [µM] | TGI (MALME-3M melanoma) [µM] | TGI (MDA-MB-435) [µM] | TGI (OVCAR-5 ovarian) [µM] | TGI (T-47D breast) [µM] | TGI (U251 CNS) [µM] | TGI (UACC-257 melanoma) [µM] | TGI (UACC-62 melanoma) [µM]
1 | CC(=O)NC1C(OCc2ccccc2)OC(CO)C(O)C1OCC(=O)N1CCCC1C(=O)NC(CCC(=O)NCCCCCNc1c2ccccc2nc2cccc([N+](=O)[O-])c12)C(N)=O (stereo unspecified) | 0.137 | 0.0813 | 0.027 | 0.0906 | 3.98 | 0.86 | 0.733 | 0.0425 | 0.033 | 0.06 | 8.41 | 0.206 | 0.327 | 0.0751
2 | N#Cc1c(N2CCOCC2)ncn(-c2ccc(Cl)cc2)c1=O | > 100 | > 100 | > 100 | > 100 | > 100 | > 100 | > 100 |  | > 100 | > 100 | > 100 | > 100 | > 100 | > 100
3 | CN(C)C(=O)Oc1ccc(C(=S)Nc2ccccc2)cc1Br | > 100 | > 100 | > 100 | > 100 | 39.6 | 48.9 | 45.8 | > 100 | 43.9 | > 100 | 80.9 | > 100 | 74 | 74.4
4 | CCN1C(=O)CS/C1=N\NC(=O)CSc1nc2ccccc2c(=O)n1CC | > 100 | > 100 | > 100 | > 100 | > 100 | > 100 | > 100 | > 100 | > 100 | > 100 | > 100 | > 100 | > 100 | > 100
5 | NCCC1([N+](=O)[O-])CCNCC1 | > 100 | > 100 | > 100 | > 100 | > 100 | > 100 | > 100 | > 100 | > 100 | > 100 | > 100 | > 100 | > 100 | > 100
6 | Cc1nc(Nc2nc3ccccc3[nH]2)[nH]c(=O)c1CCO | > 100 | > 100 | > 100 | > 100 | > 100 | > 57 | > 94.7 | > 71.5 | > 100 | > 100 | > 100 | > 100 | > 100 | > 100
7 | O=c1c(Sc2ncccn2)c(Sc2ncccn2)cnn1CCl | 35.5 | 5.45 | 24 | 11.8 | 5 | 4.76 | 5.28 | 4.25 | 3.87 | 21.1 | 14.2 | 19.7 | 6.77 | 19
8 | COc1nc(C)nc2c1ncn2Cc1ccccc1 | > 100 | > 100 | > 100 | > 100 | > 100 | > 100 | > 100 | > 100 | > 100 | > 100 | > 100 | > 100 | > 100 | > 100
9 | CCCc1cc(-c2ccc(-c3cc(CCC)c(C=O)[nH]3)s2)[nH]c1C=O | 22.7 | > 100 | 22.9 | > 100 | > 48.8 | > 100 | 32.1 | > 100 | > 100 | 58.7 | > 100 | > 100 | > 100 | > 100
10 | O=[N+]([O-])c1ccc2[nH]c(O)c(N=NC(=S)Nc3ccccc3)c2c1 | 20.8 | 19.5 | 12.4 | 17 | 36.3 | 19.6 | 24.6 |  | 26.9 | 24.7 | 38.9 | 16.6 | 27.4 | 29
11 | CC(Cc1ccc2c(c1)OCO2)N(C)C(=O)C1=CCN(C)CC1 (stereo unspecified) | > 100 | > 100 | > 100 | > 100 | > 100 | > 100 | > 100 | > 100 | > 100 | > 100 | > 100 | > 100 | > 100 | > 100
12 | CCOP(=O)(OCC)C(=C1C=C(C(C)(C)C)C(=O)C(C(C)(C)C)=C1)P(=O)(OCC)OCC | > 10 | > 3.16 | > 10 | > 6.87 | > 7.36 | > 10 | > 10 | 3.38 | > 10 | > 10 | 4.04 | > 10 | > 10 | > 10
